Measurements published in PMC6218799 (BioMed Research International, 2018).

Tests used:
CYP2E1 = test system: CYP2E1; design: method as in ref 43 = [43]; 43 Du Y. Zhu R.-H. Su F.-L. Wang F. Liang H.-X. Li H.-D. Effect of oleanolic acid on CYP1A2, CYP2E1 and CYP3A4 activity in healthy subjects Chinese Pharmaceutical Journal 2008 43 4 300 303 2-s2.0-5304; details: healthy volunteers; cited from earlier work
CYP3A4 [1] = details: healthy volunteers; cited from earlier work
CYP1A2 [2] = test system: CYP1A2; design: method as in ref 43 = [43]; 43 Du Y. Zhu R.-H. Su F.-L. Wang F. Liang H.-X. Li H.-D. Effect of oleanolic acid on CYP1A2, CYP2E1 and CYP3A4 activity in healthy subjects Chinese Pharmaceutical Journal 2008 43 4 300 303 2-s2.0-5304; details: healthy volunteers; cited from earlier work
CYP2C19 [3] = experiment: Cocktail method in rats: pharmacokinetics of probe drug omeprazole (CYP2C19 activity); type: in vivo; details: male, Wistar, omeprazole 10 mg/kg iv
Protocol: (§1) UltiMate3000 HPLC equipped with diode array detector was used to analyze the compounds.
(§2) Forty-eight male Wistar rats (220 ± 20 g) were randomly divided into two control groups, two Digeda groups, and two positive groups (n=8). […] The other groups were given the mixture of two probe drugs (omeprazole and midazolam were 10 mg/kg and 5 mg/kg) by intravenous injection.
(§3) The samples were immediately centrifuged at 3500 r/min for 10 min, and 200 μL plasma was obtained from each sample.
(§4) The plasma samples were extracted. In a 5 mL centrifuge tube, 100 μL of the IS working solution (0.1 mg/mL) was added to 200 uL of collected plasma sample followed by the addition of 2 mL of dichloromethane. After the tube was vortex-mixed for 5 min, the sample was centrifuged at 3500 r/min for 10 min. 1.2 mL of the organic phase was transferred into the other glass tube and was dried by nitrogen. The residue was redissolved with 200 μL methanol and then injected into the HPLC system for analysis. The concentration of probe drugs in plasma was measured by HPLC.
(§5) Plasma probe drug concentration versus time data for each rat was analyzed by DAS software (version 3.0, Drug Clinical Research Center of Shanghai University of TCM and Shanghai BioGuider Medicinal Technology, Co. Ltd., China). The pharmacokinetic parameters of the Digeda group and control group probe drugs with the t-test were analyzed using SPSS 17.0 statistical software. p < 0.05 was considered statistically significant.

CYP2C19 [4] = details: in vivo; cited from earlier work
CYP3A4 [5] = experiment: Cocktail method in rats: pharmacokinetics of probe drug midazolam (CYP3A4 activity); details: male, Wistar, rat, plasma, iv, 5 mg/kg, midazolam 5 mg/kg iv; for AUC(0-t): AUC0~t; for AUC(0-inf): AUC0~∞; for clearance: Cl
Protocol: as §1, §2, §3, §4, §5

CYP3A4 [6] = test system: CYP3A4; design: method as in ref 45 = [45]; 45 Han Y. L. Meng X. L. Li D. In Vitro Inhibition of Six Cytochrome P450 Isoforms in Human Liver Microsomes by Qingkailing Injection and Its Two Active Components(Baicalin and Geniposide) Chinese Phar; details: Han's research; cited from earlier work
CYP2C9 [7] = test system: CYP2C9; design: method as in ref 45 = [45]; 45 Han Y. L. Meng X. L. Li D. In Vitro Inhibition of Six Cytochrome P450 Isoforms in Human Liver Microsomes by Qingkailing Injection and Its Two Active Components(Baicalin and Geniposide) Chinese Phar; details: Han's research; cited from earlier work
CYP1A2 [8] = test system: CYP1A2; design: method as in ref 45 = [45]; 45 Han Y. L. Meng X. L. Li D. In Vitro Inhibition of Six Cytochrome P450 Isoforms in Human Liver Microsomes by Qingkailing Injection and Its Two Active Components(Baicalin and Geniposide) Chinese Phar; details: Han's research; cited from earlier work
CYP2C19 [9] = test system: CYP2C19; design: method as in ref 45 = [45]; 45 Han Y. L. Meng X. L. Li D. In Vitro Inhibition of Six Cytochrome P450 Isoforms in Human Liver Microsomes by Qingkailing Injection and Its Two Active Components(Baicalin and Geniposide) Chinese Phar; details: Han's research; cited from earlier work
CYP1A2 [10] = target: T1, CYP1A2 (Rattus norvegicus, UniProt P04799); experiment: Cocktail method in rats: pharmacokinetics of probe drug theophylline (CYP1A2 activity); type: in vivo; details: male, Wistar, plasma, iv, 10 mg/kg, theophylline 10 mg/kg iv
T1 construct: from tissue; host or cells: whole animal, male Wistar rats (in vivo pharmacokinetics)
T1 sequence (P04799 1-513): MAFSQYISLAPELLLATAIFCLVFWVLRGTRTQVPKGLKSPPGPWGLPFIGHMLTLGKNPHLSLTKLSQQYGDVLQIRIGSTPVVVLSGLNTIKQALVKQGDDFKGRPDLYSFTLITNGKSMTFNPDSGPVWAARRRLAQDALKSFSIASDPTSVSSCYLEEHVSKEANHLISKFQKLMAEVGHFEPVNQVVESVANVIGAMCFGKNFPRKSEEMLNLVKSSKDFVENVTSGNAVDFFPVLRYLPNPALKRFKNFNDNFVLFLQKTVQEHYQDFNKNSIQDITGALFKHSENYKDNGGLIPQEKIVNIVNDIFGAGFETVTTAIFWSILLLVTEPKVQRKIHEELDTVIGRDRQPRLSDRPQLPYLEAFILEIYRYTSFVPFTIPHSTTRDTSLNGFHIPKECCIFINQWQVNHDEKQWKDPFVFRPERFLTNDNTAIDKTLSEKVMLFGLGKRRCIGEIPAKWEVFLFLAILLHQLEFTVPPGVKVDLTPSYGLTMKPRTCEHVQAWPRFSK
Protocol: as §1, §2, §3, §4, §5

CYP2C9 [11] = test system: CYP2C9; design: method as in ref 44 = [44]; 44 Zhang Y. D. Liu X. Q. Guo Y. L. Effects of 20 active ingredients of traditional Chinese herbs on CYP2C9 activities in rat liver microsomes Journal of Third Military Medical University 2013 35 24 26; details: rat liver microsomes in vitro; cited from earlier work
[12] = positive group (phenobarbital 50 mg/kg ip 7 days), rat plasma
[13] = rat, plasma, iv, 10 mg/kg, Digeda group (Digeda-4 decoction 600 mg/kg ig 14 days)
[14] = rat, plasma, iv, 10 mg/kg, control group (saline ig 14 days)
[15] = rat, plasma, iv, 10 mg/kg, positive group (phenobarbital 50 mg/kg ip 7 days)
[16] = Digeda group (Digeda-4 decoction 600 mg/kg ig 14 days)
[17] = control group (saline ig 14 days)
[18] = positive group (phenobarbital 50 mg/kg ip 7 days)

CC1(C)CC[C@]2(C(=O)O)CC[C@]3(C)C(=CC[C@@H]4[C@@]5(C)CC[C@H](O)C(C)(C)[C@@H]5CC[C@]43C)[C@@H]2C1 [Oleanolic acid]
effect on CYP2E1 activity (CYP2E1): little inhibition | effect on CYP3A4 (CYP3A4 [1]): no effect | effect on CYP1A2 activity (CYP1A2 [2]): can inhibit CYP1A2 activity significantly

COc1ccc2[nH]c([S+]([O-])Cc3ncc(C)c(OC)c3C)nc2c1 (stereo not drawn) [Omeprazole, omeprazole]
clearance (CYP2C19 [3]; [12]): 10.2 mL/min/kg | half-life (CYP2C19 [3]; [12]): 7.08 ± 1.2 min | AUC(0-inf) (CYP2C19 [3]; [13]): 14200 ± 2610 ng·h/mL | AUC(0-t) (CYP2C19 [3]; [13]): 13300 ± 2630 ng·h/mL | Cmax (CYP2C19 [3]; [13]): 38600 ± 6690 ng/mL | clearance (CYP2C19 [3]; [13]): 4.9 mL/min/kg | half-life (CYP2C19 [3]; [13]): 16.9 ± 2.76 min | AUC(0-inf) (CYP2C19 [3]; [14]): 7280 ± 1310 ng·h/mL | AUC(0-t) (CYP2C19 [3]; [14]): 6920 ± 1390 ng·h/mL | Cmax (CYP2C19 [3]; [14]): 20900 ± 3710 ng/mL | clearance (CYP2C19 [3]; [14]): 8 mL/min/kg | half-life (CYP2C19 [3]; [14]): 9.78 ± 1.92 min | AUC(0-inf) (CYP2C19 [3]; [15]): 5340 ± 993 ng·h/mL | AUC(0-t) (CYP2C19 [3]; [15]): 4980 ± 845 ng·h/mL | Cmax (CYP2C19 [3]; [15]): 16900 ± 2630 ng/mL

COc1cc(C(=O)O[C@H]2[C@@H]3C=CO[C@@H](O[C@@H]4O[C@H](CO)[C@@H](O)[C@H](O)[C@H]4O)[C@@H]3[C@@]3(CO)O[C@@H]23)ccc1O [picroside II]
effect on the activity of CYP2C19 (CYP2C19 [4]): inhibitory effect

Cc1ncc2n1-c1ccc(Cl)cc1C(c1ccccc1F)=NC2 [Midazolam, midazolam]
AUC(0-t) (CYP3A4 [5]; [16]): 1170 ± 209 ng·h/mL | AUC(0-t) (CYP3A4 [5]; [17]): 881 ± 151 ng·h/mL | AUC(0-t) (CYP3A4 [5]; [18]): 653 ± 95 ng·h/mL | AUC(0-inf) (CYP3A4 [5]; [16]): 1360 ± 309 ng·h/mL | AUC(0-inf) (CYP3A4 [5]; [17]): 928 ± 157 ng·h/mL | AUC(0-inf) (CYP3A4 [5]; [18]): 711 ± 125 ng·h/mL | clearance (CYP3A4 [5]; [16]): 69.7 mL/min/kg | clearance (CYP3A4 [5]; [17]): 104 mL/min/kg | clearance (CYP3A4 [5]; [18]): 115 mL/min/kg | Cmax (CYP3A4 [5]; [16]): 2680 ± 509 ng/mL | Cmax (CYP3A4 [5]; [17]): 2900 ± 491 ng/mL | Cmax (CYP3A4 [5]; [18]): 2560 ± 507 ng/mL | half-life (CYP3A4 [5]; T1/2, Digeda group (Digeda-4 decoction 600 mg/kg ig 14 days)): 11.9 ± 1.92 min | half-life (CYP3A4 [5]; T1/2, control group (saline ig 14 days)): 8.64 ± 1.8 min | half-life (CYP3A4 [5]; T1/2, positive group (phenobarbital 50 mg/kg ip 7 days)): 6.3 ± 0.96 min

COC(=O)C1=CO[C@@H](O[C@@H]2O[C@H](CO)[C@@H](O)[C@H](O)[C@H]2O)[C@@H]2C(CO)=CC[C@H]12 [geniposide]
inhibitory effect on CYP3A4 (CYP3A4 [6]): no inhibitory effect | inhibitory effect on CYP2C9 (CYP2C9 [7]): no inhibitory effect | inhibitory effect on CYP1A2 (CYP1A2 [8]): no inhibitory effect | inhibitory effect on CYP2C19 (CYP2C19 [9]): no inhibitory effect

Cn1c(=O)c2[nH]cnc2n(C)c1=O [Theophylline, theophylline]
AUC(0-inf) (CYP1A2 [10]; [16]): 569000 ± 142000 ng·h/mL | AUC(0-t) (CYP1A2 [10]; [16]): 299000 ± 67000 ng·h/mL | Cmax (CYP1A2 [10]; [16]): 30700 ± 5450 ng/mL | clearance (CYP1A2 [10]; [16]): 0.333 mL/min/kg | half-life (CYP1A2 [10]; [16]): 835 ± 160 min | AUC(0-inf) (CYP1A2 [10]; [17]): 326000 ± 76900 ng·h/mL | AUC(0-t) (CYP1A2 [10]; [17]): 206000 ± 37100 ng·h/mL | Cmax (CYP1A2 [10]; [17]): 31800 ± 5610 ng/mL | clearance (CYP1A2 [10]; [17]): 0.55 mL/min/kg | half-life (CYP1A2 [10]; [17]): 402 ± 97.5 min | AUC(0-inf) (CYP1A2 [10]; [18]): 118000 ± 21400 ng·h/mL | AUC(0-t) (CYP1A2 [10]; [18]): 71900 ± 15400 ng·h/mL | Cmax (CYP1A2 [10]; [18]): 30000 ± 5180 ng/mL | clearance (CYP1A2 [10]; [18]): 1.02 mL/min/kg | half-life (CYP1A2 [10]; [18]): 148 ± 21.5 min

C=C[C@H]1[C@H](O[C@@H]2O[C@H](CO)[C@@H](O)[C@H](O)[C@H]2O)OC=C2C(=O)OCC[C@]21O [swertiamarin]
effect on CYP2C9 activity (CYP2C9 [11]): inhibitory effect
